Laboratory results from patent US4977152A, “Novel tricyclic derivatives which are agonists of cholinergic receptors, and drugs in which they are present” (Societe Anonyme: Sanofi, priority 1986, dated 1990).
Residue numbers refer to the chain shown, from its start. “And” between values parts separate entries of the source, which are not always exact repeats. Identical values can stand only once. Counter-ions that a name gives are not always drawn. Like-named read-outs stand apart in the source and are kept apart here.

How the values were obtained:
[1] = target: T1, M1 central muscarinic cholinergic receptors (Mus musculus, UniProt P12657); assay: Antagonism of rotational behavior induced by intrastriatal injection of pirenzepine in mice; type: in vivo, mice (female, Swiss, CD 1); conditions: ip, read-out: Pirenzepine antagonism ED50
T1 construct: The intrastriatal injection of PZ into mice induces rotational behavior; from tissue; host or cells: right striatum of living female mice (Swiss, CD 1)
T1 sequence (P12657 1-460): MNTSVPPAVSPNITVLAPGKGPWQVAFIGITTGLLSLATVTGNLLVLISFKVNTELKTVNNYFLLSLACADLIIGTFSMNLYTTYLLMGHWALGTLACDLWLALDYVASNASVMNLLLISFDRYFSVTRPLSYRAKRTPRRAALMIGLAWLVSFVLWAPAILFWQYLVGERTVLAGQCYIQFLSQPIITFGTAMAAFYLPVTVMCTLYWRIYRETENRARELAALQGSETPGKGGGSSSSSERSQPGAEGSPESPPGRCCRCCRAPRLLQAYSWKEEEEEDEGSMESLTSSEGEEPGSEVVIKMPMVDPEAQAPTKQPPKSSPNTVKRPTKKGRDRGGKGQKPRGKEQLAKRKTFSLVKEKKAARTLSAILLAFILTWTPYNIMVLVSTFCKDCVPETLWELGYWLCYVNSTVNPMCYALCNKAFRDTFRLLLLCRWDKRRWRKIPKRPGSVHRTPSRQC
Procedure: Pirenzepine (PZ) is a specific antagonist of M1 central muscarinic cholinergic receptors. The intrastriatal injection of PZ into mice induces rotational behavior. The antagonism of this behavior by the products according to the invention was studied.
The products according to the invention are injected intraperitoneally (i.p.) after solubilization in distilled water or suspension in a 5% solution of gum arabic. The control animals receive an injection of the pure solvent under the same conditions.
The animals used are female mice (Swiss, CD 1, Charles River, France) with a body weight of between 25 and 30 grams.
Pirenzepine is dissolved in a phosphate buffer; the pH of the solution is 6.
The products to be studied or their solvents are injected intraperitoneally, in a volume of 0.4 ml per 20 g of body weight, 15 minutes before a direct injection of pirenzepine at a dose of […] into the right striatum of the mouse, according to the method described by p.
The number of contralateral rotations (rotations in the opposite direction to the side injected) was counted for three 2-minute periods after the injection of pirenzepine: minutes 2 to 4, 8 to 10 and 13 to 15. Each treatment includes 3 to 4 doses and 10 animals per dose. For each treatment, the total number of rotations and the percentage antagonism compared with the control group are calculated.

[2] = target: T2, M2-type muscarinic cholinergic receptor (Cavia porcellus, UniProt H0VRN8); assay: Test for affinity for the M2-type muscarinic cholinergic receptor: displacement of [3H]N-methylscopolamine on smooth muscle of guinea-pig ileum; type: binding; conditions: guinea-pig ileum smooth muscle homogenate, 0.3 nM [3H]NMS, 20 min at 30° C., pH 7.5
T2 construct: on a homogenate of smooth muscle of guinea-pig ileum; from tissue; host or cells: guinea-pig ileum smooth muscle homogenate
T2 sequence (H0VRN8 1-466): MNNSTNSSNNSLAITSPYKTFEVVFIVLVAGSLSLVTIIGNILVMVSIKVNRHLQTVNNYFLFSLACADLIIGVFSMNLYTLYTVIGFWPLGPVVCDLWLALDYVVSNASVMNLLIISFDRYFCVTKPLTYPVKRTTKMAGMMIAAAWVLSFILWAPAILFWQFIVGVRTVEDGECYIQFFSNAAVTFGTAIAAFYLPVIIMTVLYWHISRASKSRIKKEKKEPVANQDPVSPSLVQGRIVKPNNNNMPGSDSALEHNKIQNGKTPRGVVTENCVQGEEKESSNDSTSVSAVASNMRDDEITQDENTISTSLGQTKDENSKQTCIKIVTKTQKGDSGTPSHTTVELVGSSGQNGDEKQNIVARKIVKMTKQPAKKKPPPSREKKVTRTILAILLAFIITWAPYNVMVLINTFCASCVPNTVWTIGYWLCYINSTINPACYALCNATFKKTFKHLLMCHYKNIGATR
Source text: (§1) The M1 -type receptors are concentrated in certain areas of the brain, such as the hippocampus, the cerebral cortex and the striatum, and also in the sympathetic ganglia. These binding sites can be selectively labeled with [^3 H]pirenzepine ([^3 H]PZ). The M2 -type receptors predominate in the heart and ileum and can be labeled with [^3 H]N-methylscopolamine ([^3 H]NMS). To determine the selectivity of our molecules towards the M1 and M2 sites, we studied their interaction in vitro with [^3 H]PZ and [^3 H]NMS bound with a high affinity to membranes of rat hippocampus and membranes of smooth muscle of guinea-pig ileum, respectively.
The interaction with M2 -type muscarinic receptors was studied by in vitro measurement, on a homogenate of smooth muscle of guinea-pig ileum, of the displacement of tritiated N-methylscopolamine ([^3 H]NMS) from its specific binding sites. Aliquots (50 μl) of a 0.625% (w/v) homogenate of smooth muscle of guinea-pig ileum in MEPES buffer (20 mM) containing NaCl (100 mM) and MgCl2 (10 mM) (final pH: 7.5) are incubated for 20 min at 30° C. in the presence of [^3 H]NMS ([…]; final concentration: 0.3 nM) and increasing concentrations of products to be tested. The final volume is 1 ml. The reaction is stopped by centrifugation for 5 min at 15,000 × g. The non-specific binding is determined in the presence of 10 μmol/l of atropine sulfate (Ref.: Hammer R., Berrie C. P., Birdsall N. I. M., Burgen A. S. V. and Hulme E. C., Nature, 283, 90-92, 1980; Hulme E. C., Birdsall N.1.M., Burgen A. S. V. and Mettha P., Mol. pharmacol., 14, 737-750, 1978).
(§2) Table 4 indicates the affinities of the products of the invention for M1 and M2 receptors. The results are expressed as 50% inhibitory concentrations (IC50), i.e. the concentration (in μM) which causes a 50% displacement placement of the tritiated ligand bound to the membrane receptors. The IC50 for displacement of ^3 H-pirenzepine represents the affinity for the M1 receptor; the IC50 for displacement of 3H-NMS represents the affinity for the M2 receptor.

[3] = target: T3, M1-type muscarinic cholinergic receptor (Rattus norvegicus, UniProt P08482); assay: Test for affinity for the M1-type muscarinic cholinergic receptor: displacement of [3H]pirenzepine on rat hippocampus homogenate; type: binding; conditions: for IC50: rat hippocampus homogenate, 1 nM [3H]PZ, 2 h at 4° C., pH 7.40; for r = (M2 /M1): ratio of IC50 M2 (3H-NMS, guinea-pig ileum) to IC50 M1 (3H-pirenzepine, rat hippocampus)
T3 sequence (P08482 1-460): T1 sequence (P12657 1-460) with P309S
Source text: as §1
The interaction of the molecules with M1 -type muscarinic receptors was studied by in vitro measurement, on a homogenate of rat hippocampus, of the displacement of tritiated pirenzepine ([^3 H]PZ) from its specific binding sites. Aliquots (10 μl) of a 5% (w/v) homogenate of rat hippocampus in an Na2 HPO4 buffer (50 mM, pH 7.40) are incubated for 2 h at 4° C. in the presence of [^3 H]pZ ([…]; final concentration: 1 nM) and increasing concentrations of products to be studied. The final volume is 2 ml. The reaction is stopped by centrifugation for 10 min at 50,000 × g. After decantation and washing of the residues, the bound radioactivity is counted by liquid scintillation. The non-specific binding is determined in the presence of 10 μmol/l of atropine sulfate. The 50% inhibitory concentration (IC50) is determined graphically (Ref.: Watson J. D., Roeskoe W. R. and Yamamura H.1., Life Sci., 31, 2019-2029, 1982).
as §2

[4] = mice, i.p. 15 minutes before intrastriatal pirenzepine, 50% reduction in number of rotations

Row | SMILES | ED50 [1] [mg/kg] | IC50 [2] | IC50 [3] [µM] | r = (M2 /M1) [3] | r = (M2 /M1) ([3]; dihydrochloride) | ED50 [1, 4] [mg/kg]
1 | CCN(CC)CCNc1cc2c(nn1)-c1cc(C)c(C)cc1CCC2.Cl.Cl [SR 44663 A, 3-(2-Diethylaminoethylamino)-9,10-dimethyl-6,7-dihydro-5H-benzocyclohepta[5,6-c]pyridazine dihydrochloride] | 1 | 5 µM | 0.16 | 37 |  | 
2 | Cl.Cl.c1ccc2c(c1)CCc1cc(NCCN3CCOCC3)nnc1-2 [SR 95695 A, 3-(2-Morpholinoethylamino)-5,6-dihydrobenzo[h]cinnoline dihydrochloride] | 5 | 100 µM and > 100 µM | 2.6 |  | 38 and > 38 | 
3 | CCN(CC)CCSc1cc2c(nn1)-c1ccccc1CCC2 [SR 95820 A, 3-(2-Diethylaminoethylthio)-6,7-dihydro-5H-benzocyclohepta[ [drawing 52] 5,6-c]pyridazine hydrochloride] |  | 2 µM | 0.07 | 29 |  | 8
4 | CCN(CC)CCSc1cc2c(nn1)-c1ccccc1CC2.Cl [SR 95743 A, 3-(2-Diethylaminoethylthio)-5,6-dihydrobenzo[h]cinnoline hydrochloride] | 8 | 10 µM | 0.7 | 14 |  | 
5 | CCN(CC)CCNc1cc2c(nn1)-c1cc([N+](=O)[O-])ccc1CCC2.Cl.Cl [SR 95777 A, 3-(2-Diethylaminoethylamino)-10-nitro-6,7-dihydro-5H-benzocyclohepta[5,6-c]pyridazine dihydrochloride] | 0.5 | 5.6 µM | 0.1 | 56 |  | 
6 | CN(C)CCOc1cc2c(nn1)-c1ccccc1CC2.Cl [SR 95745 A, 3-(2-Dimethylaminoethoxy)-5,6-dihydrobenzo[h]cinnoline hydrochloride] | 8 | 80 µM | 3.9 | 21 |  | 
7 | CN(C)CCOc1cc2c(nn1)-c1ccccc1CCC2.Cl [SR 95822 A, 3-(2-Dimethylaminoethoxy)-6,7-dihydro-5H-benzocyclohepta[5,6-c]pyridazine hydrochloride] | 3 | 9.5 µM | 1 | 9.5 |  | 
8 | CCN(CC)CCNc1cc2c(nn1)-c1cc(Cl)ccc1CCC2.Cl.Cl [SR 95878 A, 10-Chloro-3-(2-diethylaminoethylamino)-6,7-dihydro-5H-benzocyclohepta[5,6-c]pyridazine dihydrochloride] | 2 | 1.1 µM | 0.04 | 26 |  | 
9 | CCN(CC)CCNc1cc2ccc3ccccc3c2nn1.Cl.Cl [SR 96055 A, 3-(2-Diethylaminoethylamino)benzo[h]cinnoline dihydrochloride] | 3 | 17 µM | 0.32 | 53 |  | 
10 | Cl.Cl.c1ccc2c(c1)ccc1cc(NCCN3CCOCC3)nnc12 [SR 95679 A, 3-(2-Morpholinoethylamino)benzo[h]cinnoline dihydrochloride] | 10 | 100 µM and > 100 µM | 3.1 |  | 32 and > 32 | 
11 | Cc1cc2c(cc1C)-c1nnc(NCCN(C(C)C)C(C)C)cc1CCC2 [SR 44664 A] |  | 2 µM | 0.18 | 11 |  | 3
12 | CN1CCC(Nc2cc3c(nn2)-c2ccccc2CCC3)CC1 [SR 96093 A, 3-(1-Methylpiperidin-4-yl)amino]-6,7-dihydro-5H-benzocyclohepta[5,6-c]pyridazine dihydrochloride] |  | 50 µM | 1.2 | 42 |  | 15
13 | CN(C)CCNc1cc2c(nn1)-c1ccccc1CCC2 [SR 95824 A] |  | 25 µM | 0.2 | 125 |  | 3
14 | c1ccc2c(c1)CCCc1cc(NCCN3CCCC3)nnc1-2 [SR 95883 A] |  | 4.5 µM | 0.13 | 35 |  | 3
15 | CN(C)CCNc1cc2c(nn1)-c1cc([N+](=O)[O-])ccc1CCC2 [SR 44681 A] |  | 9 µM | 0.26 | 35 |  | 1
